# Data: patent publication US9765074B2, “Inhibitors of the renal outer medullary potassium channel” (Merck Sharp & Dohme Corp., priority 2013, dated 2017)
# pIC50: −log10 of the molar value.
# Target: T1, hROMK (hKir1.1) (Homo sapiens, UniProt P48048)
# T1 construct: expressed in transfected cells
# T1 sequence (P48048 1-391): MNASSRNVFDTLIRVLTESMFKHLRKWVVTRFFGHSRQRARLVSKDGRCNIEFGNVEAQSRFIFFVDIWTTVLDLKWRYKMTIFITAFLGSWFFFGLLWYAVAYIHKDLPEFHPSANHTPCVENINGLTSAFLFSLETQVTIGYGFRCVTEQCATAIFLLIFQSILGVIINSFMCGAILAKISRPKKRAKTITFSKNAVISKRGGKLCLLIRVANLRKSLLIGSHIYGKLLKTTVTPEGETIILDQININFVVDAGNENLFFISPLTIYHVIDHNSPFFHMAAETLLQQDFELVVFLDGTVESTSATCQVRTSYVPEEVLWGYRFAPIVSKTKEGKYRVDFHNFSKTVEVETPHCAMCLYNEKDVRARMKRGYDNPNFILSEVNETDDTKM
# Assay: Thallium Flux Assay (ROMK channel functional thallium flux, FLIPR-Tetra)
# Assay type: cell-based
# Conditions: HEK293 cells stably expressing hROMK (hKir1.1); 30 min compound incubation
# Summary of the method: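 HEK293 cells stably expressing hKir1.1, loaded with FluxOR dye for 90 min, then preincubated with compound for 30 min at ambient temperature with 0.3 mM ouabain and probenecid. Stimulated with 3 mM thallium/0.3 mM potassium (final); fluorescence read ~10 min. Normalized to 3 μM reference ROMK inhibitor; IC50 from inhibition of flux.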
row,Structure (SMILES),pIC50
1,"CC1OC(=O)C=C1N1CCC2(CCN(C[C@H](O)c3ccc(-n4cnnn4)nc3)CC2)C1=O (mixture of isomers) [Example 227, 8-((R)-2-(6-(1H-tetrazol-1-yl)pyridin-3-yl)-2-hydroxyethyl)-2-(2-methyl-5-oxo-2,5-dihydrofuran-3-yl)-2,8-diazaspiro[4.5]decan-1-one]",6.74
2,"CC1=C(N2CCC3(CCN([C@@H](C)Cc4ccc(-n5cnnn5)nn4)CC3)C2=O)COC1=O (single isomer, unassigned) [Example 293]",8.00
3,"CC1=C(N2C(=O)C3(CCN(C[C@H](O)c4ccc(-n5cnnn5)cc4C)CC3)CC2C)COC1=O (single isomer, unassigned) [Example 139]",7.40
4,"CC1=C(N2CCC3(CC4CCC(C3)N4C[C@@H](O)c3ccc(-n4cnnn4)nn3)C2=O)COC1=O (stereo partly drawn) [Example 53, (1R,5R)-8-{(2R)-2-hydroxy-2-[6-(1H-tetrazol-1-yl)pyridazin-3-yl]ethyl}-1′-(4-methyl-5-oxo-2,5-dihydrofuran-3-yl)-2′-oxospiro[8-azoniabicyclo[3.2.1]octane-3,3′-pyrrolidine]]",8.00
5,"COC1CN(CCc2ccc(-n3cnnn3)nn2)CCC12CCN(C1=C(C)C(=O)OC1)C2=O (single isomer, unassigned) [Example 258, 6-methoxy-2-(4-methyl-5-oxo-2,5-dihydrofuran-3-yl)-8-{2-[6-(1H-tetrazol-1-yl)pyridazin-3-yl]ethyl}-2,8-diazaspiro[4.5]decan-1-one]",6.92
6,"CC1=C(N2CCC3(CCN(C[C@H](O)c4ccc(-n5cnnn5)nc4C)CC3)C2=O)COC1=O [Example 20, 8-{(2R)-2-hydroxy-2-[2-methyl-6-(1H-tetrazol-1-yl)pyridin-3-yl]ethyl}-2-(4-methyl-5-oxo-2,5-dihydrofuran-3-yl)-1-oxo-2-aza-8-azoniaspiro[4.5]decane]",7.52
7,"COCC1=C(N2CCC3(CCN(C[C@H](O)c4ccc(-n5cnnn5)nn4)CC3)C2=O)COC1=O [Example 191, 8-{(2S)-2-hydroxy-2-[6-(1H-tetrazol-1-yl)pyridazin-3-yl]ethyl}-2-[4-(methoxymethyl)-5-oxo-2,5-dihydrofuran-3-yl]-2,8-diazaspiro[4.5]decan-1-one]",7.15
8,"CC1=C(N2CCC3(CCN(C[C@H](O)c4ccc(-n5cnnn5)nc4)CC3F)C2=O)COC1=O (single isomer, unassigned) [Example 194]",8.00
9,"CC1=C(N2CCC3(CC4CN(C)CC(C3)N4C[C@H](O)c3ccc(-n4cnnn4)nc3)C2=O)COC1=O (stereo partly drawn) [Example 112, (1R,5R,7R,9R)-9-{(2R)-2-hydroxy-2-[6-(1H-tetrazol-1-yl)pyridin-3-yl]ethyl}-7-methyl-1′-(4-methyl-5-oxo-2,5-dihydrofuran-3-yl)-2′-oxospiro[7,9-diazoniabicyclo[3.3.1]nonane-3,3′-pyrrolidine]]",6.39
10,"CCC1CC2(CCN(C[C@H](O)c3ccc(-n4cnnn4)nc3)CC2)C(=O)N1C1=CC(=O)OC1 (mixture of isomers) [Example 218, 3-ethyl-8-{(2R)-2-hydroxy-2-[6-(1H-tetrazol-1-yl)pyridin-3-yl]ethyl}-2-(5-oxo-2,5-dihydrofuran-3-yl)-2,8-diazaspiro[4.5]decan-1-one]",8.00
11,"CC1=C(N2C=CC3(CCN([C@H](C)Cc4ccc(-n5cnnn5)nn4)CC3)C2=O)COC1=O (single isomer, unassigned) [Example 273]",8.40
12,"CO[C@@H](CN1CCC2(CC1)CCN(C1=C(C)C(=O)OC1)C2=O)c1ccc(-n2cnnn2)nc1 [Example 289, (R)-8-(2-(6-(1H-tetrazol-1-yl)pyridin-3-yl)-2-methoxyethyl)-2-(4-methyl-5-oxo-2,5-dihydrofuran-3-yl)-2,8-diazaspiro[4.5]decan-1-one]",7.70
13,"CC1=C(N2C(=O)C3(CCN(C[C@H](O)c4ccc(-n5cnnn5)cc4F)CC3)CC2C)COC1=O (single isomer, unassigned) [Example 141]",7.52
14,"CC1OC(=O)C=C1N1C(=O)C2(CCN(C[C@H](O)c3ccc(-n4cnnn4)nc3)CC2)C[C@@H]1C (single isomer, unassigned) [Example 228]",7.70
15,"CC1=C(N2CCC3(CCN(C[C@@H](O)c4ccc(-n5cnnn5)nc4)CC3F)C2=O)COC1=O (single isomer, unassigned) [Example 193]",7.70
16,"CC1=CC2(CCN(C[C@H](O)c3ccc(-n4cnnn4)nc3)CC2)C(=O)N1C1=CC(=O)OC1 [Example 174, 8-{(2R)-2-hydroxy-2-[6-(1H-tetrazol-1-yl)pyridin-3-yl]ethyl}-3-methyl-2-(5-oxo-2,5-dihydrofuran-3-yl)-2,8-diazaspiro[4.5]dec-3-en-1-one]",7.70
17,"CC1=C(N2CCC3(CCN(C(C)(C)C(O)c4ccc(-n5cnnn5)nc4)CC3)C2=O)COC1=O (single isomer, unassigned) [Example 297]",8.00
18,"CC1=C(N2CCC3(CCN(C[C@@H](O)c4ncc(-n5cnnn5)cc4F)CC3)C2=O)COC1=O [Example 148, 8-{(2R)-2-[3-fluoro-5-(1H-tetrazol-1-yl)pyridin-2-yl]-2-hydroxyethyl}-2-(4-methyl-5-oxo-2,5-dihydrofuran-3-yl)-2,8-diazaspiro[4.5]decan-1-one]",7.00
19,"CC1=C(N2CCC3(CCN(CCc4cc(C)c(-n5cnnn5)nn4)CC3)C2=O)COC1=O [Example 237, 2-(4-methyl-5-oxo-2,5-dihydrofuran-3-yl)-8-{2-[5-methyl-6-(1H-tetrazol-1-yl)pyridazin-3-yl]ethyl}-1-oxo-2-aza-8-azoniaspiro[4.5]decane]",7.70
20,"CC1=C(N2C(=O)C3(CC2C)CC2CCC(C3)N2C[C@H](O)c2ccc(-n3cnnn3)nc2)COC1=O (single isomer, unassigned) [Example 135]",7.30
21,"Cc1nc(-n2cnnn2)cnc1C(O)CN1CCC2(CC1)C[C@H](C)N(C1=CC(=O)OC1)C2=O (mixture of isomers) [Example 165, (3S)-8-{2-hydroxy-2-[3-methyl-5-(1H-tetrazol-1-yl)pyrazin-2-yl]ethyl}-3-methyl-2-(5-oxo-2,5-dihydrofuran-3-yl)-2,8-diazaspiro[4.5]decan-1-one]",8.00
22,"CC1=C(N2C=CC3(CCN(C[C@@H](O)c4ccc(-n5cnnn5)nc4)CC3)C2=O)COC1=O [Example 156, 8-{(2S)-2-hydroxy-2-[6-(1H-tetrazol-1-yl)pyridin-3-yl]ethyl}-2-(4-methyl-5-oxo-2,5-dihydrofuran-3-yl)-1-oxo-2-aza-8-azoniaspiro[4.5]dec-3-ene]",7.70
23,"O=C1C=C(N2C(=O)C3(CCN(C[C@H](O)c4ccc(-n5cnnn5)cn4)CC3)CC2C2CC2)CO1 (mixture of isomers) [Example 222, 3-cyclopropyl-8-{(2S)-2-hydroxy-2-[5-(1H-tetrazol-1-yl)pyridin-2-yl]ethyl}-2-(5-oxo-2,5-dihydrofuran-3-yl)-2,8-diazaspiro[4.5]decan-1-one]",7.00
24,"CC1=C(N2CCC3(CCN(C[C@@H](O)c4ccc(-n5cnnn5)c(C)n4)CC3)C2=O)COC1=O [Example 31, 8-{(2R)-2-hydroxy-2-[6-methyl-5-(1H-tetrazol-1-yl)pyridin-2-yl]ethyl}-2-(4-methyl-5-oxo-2,5-dihydrofuran-3-yl)-1-oxo-2-aza-8-azoniaspiro[4.5]decane]",7.52
